Patent US20230339991A1, “HYPOXIA-ACTIVATED DNA ALKYLATING AGENT AND MEDICAL USE THEREOF” (ASCENTAWITS PHARMACEUTICALS, LTD., priority 2020, published 2023)
Values joined by “and” are separate entries in the source; they are usually repeats but may differ in a detail not shown here. Equal values may be shown once. Read-outs that look alike come from different tables or passages of the source. Marks after values point to notes of the source that are not given here.

Tests used:
[1] = test system: DLD-1 WT (wild type) cells; experiment: Clonogenic assay, DLD-1 WT; format: cell-based; settings: for IC90: Homo sapiens, 3 h
Experimental: The following PSN-1 cells, PANC1 cells, MiaPaCa-2 cells, H460 cells, DLD-1 WT (wild type) cells, DLD-1 BRCA2 KO (BRCA2 deletion) cells were seeded in 10 cm vitreous cell culture plates at specific cell numbers and incubated for 2 days at 37° C. and under the conditions of 5% CO2, 95% air and 100% relative humidity. On day 3, test compounds TH302 or AST-002-P2 at the specific concentrations were added to the cells, and incubated for 3 hours together with the cells under normoxic (21% O2) and hypoxic conditions (<0.01% O2), respectively. After cells were stimulated by compounds, the cells were washed once with 1×PBS and digested into single cells with pancreatic enzymes for cell counting. The above cells in specific cell numbers were reseeded in a new culture plate and cultured for 7 days to perform single cell colony formation. When single cells in compound culture plates stimulated under normoxic conditions proliferated to about 50 cells, the cultures were removed and stained with 0.5% crystal violet for 40 minutes. After staining, cells were counted for colonies using Colony Counter (VWR) and the IC90 was calculated.

P-gp = P-gp (Homo sapiens, UniProt P08183); experiment: P-gp substrate evaluation, MDCKII-MDR1 penetration test; settings: for recovery at 2 h: dog; for Pgp substrate status: with and without verapamil
Experimental: (1) MDCKII-MDR1 cells were cultured in the cell culture bottle. The conditions of the incubator were 37° C., 5% of CO2, and 95% of the relative humidity. When the cell growth confluence was up to 70-90%, the cells were inoculated to the transwell.
The cell suspension was transferred to the upper compartment of the 96-well transwell, wherein each upper compartment contains 50 μL of the cell suspension. The final inoculum density was 5.45×10^5 cells/cm^2.
(1) The transwell culture plate of the MDCKII-MDRT cells was taken out from the incubator. The cell monolayer membrane was rinsed two times with the buffer solution and incubated at 37° C. for 30 min.
(2) The transport rate that the compound was transported from the top-end to the base-end was tested. 75 μL of the buffer solution contained the sample was added to each upper compartment (top-end), and 235 μL of the buffer solution was added to each lower compartment (base-end).
(3) The transport rate that the compound was transported from the base-end to the top-end was tested. 75 μL of the buffer solution was added to each upper compartment (top-end), and 235 μL of the buffer solution contained the sample was added to each lower compartment (base-end).
(6) The upper and lower transits were merged up and then incubated at 37° C. for 2 h.
(7) After the incubation was finished, 50 μL of the samples from each well of the upper compartment and the lower compartment of the transwell culture plate were respectively added to new sample tubes. 200 μL of the acetonitrile containing the internal standard (100 nM Alprazolam, 200 nM Labetalol, 200 nM caffeine and 2 μM Ketoprofen) was added to each sample tube. After the sample tubes were vortexed for 10 min, they were centrifuged at 3220 g for 30 min. 100 μL of the supernatant was taken and diluted with the same volume of the water to perform the LC-MS/MS analysis. Each sample was adopted to the three parallel incubation.
The peak area was calculated by the result of the ion chromatography. The permeability coefficient (Papp, unit: cm/s×10^−6) of the compound was calculated by the formula: […]
In the formula, “VA” refers to the volume of the solution on the acceptor (Ap→Bl was 0.235 mL, and Bl→Ap was 0.075 mL), “Area” refers to the area of the permeable membrane of the 96-well transwell (0.143 cm^2), “time” refers to the incubation time (in second), “[drug]acceptor” refers to the drug concentration of the acceptor after the incubation, and “[drug]initial, donor” refers to the initial concentration of the drug administration before the incubation.
The efflux ratio was calculated by the following formula: […]
In the formula, “Papp (B-A)” refers to the permeability coefficient from the base-end to the top-end, and the term “Papp (A-B)” refers to the permeability coefficient from the top-end to the base-end.
The recovery was calculated by the following formula: […]
In the formula, “VA” refers to the volume of the solution on the acceptor (mL), “VD” refers to the volume of the solution on the donor (mL), “[drug]acceptor” refers to the drug concentration of the acceptor after the incubation, “[drug]donor” refers to the drug concentration of the donor after the incubation, and the term “[drug]initial, donor” refers to the initial concentration of the drug administration before the incubation.

Plasma stability, mouse = format: in vitro ADME; settings: for Remaining percentage: after 30 minutes; for plasma stability: mouse plasma
Experimental: (§1) The pH of the plasma was checked and recorded. Note: a.
(§2) The final concentration of solvent was 0.5%.
(§3) The assay is performed in duplicate.

Plasma stability, rat = settings: for Remaining percentage / Remaining percentage (%): Rat plasma; for Remaining percentage: after 30 minutes
Experimental: The frozen plasma was immediately melted in a water bath of 37° C. The plasma was centrifuged at 3, 220 g for 10 minutes to remove the blood clots and the supernatant was collected into a new test tube. The pH of the plasma was checked and recorded. Note: a. Only plasma that has been melted no more than twice since arrival was used; b. Only plasma in the range of pH 7 to pH 8 was used.
1 mM of working solutions of the test compound and the control compound mevinolin were prepared in DMSO. 1 mM of the working solution of the control compound solution in […] was prepared in acetonitrile. 4 μL of the working solution was added to 796 μL of pre-incubated plasma to achieve 5 μM of final concentration. The final concentration of solvent was 0.5%.
[…] The assay is performed in duplicate. At the end of the two hour incubation, 300 μL of quenched solution at room temperature (acetonitrile containing internal standards (acetonitrile, 100 nM Alprazolam, 500 nM Labetalol and 2 μM ketoprofen)) was added to terminate the reaction. Samples at time 0 were prepared by adding 50 μL of standard addition plasma to the new test tubes with 300 μL of quenched solution at room temperature. The test tubes were mixed by vortex for 5 minutes. The samples in the plates were centrifuged at 3, 220×g for 30 minutes at 4° C. to precipitate the proteins. 100 μL of supernatant was transferred to a new plate. The supernatant was diluted with 100 μL of water, mixed well and analysed using LC-MS/MS.

Plasma stability, monkey = format: in vitro ADME
Experimental: as §1, §2, §3

[2] = 21% O2, read-out: IC90 Normoxia
[3] = <0.01% O2, read-out: IC90 Hypoxia
[4] = MDCK-MDR1, Recovery (%) AP-BL, verapamil 0 μM
[5] = MDCK-MDR1, Recovery (%) AP-BL, verapamil 100 μM
[6] = MDCK-MDR1, Recovery (%) BL-AP, verapamil 100 μM

Chain of P-gp (P08183 whole entry): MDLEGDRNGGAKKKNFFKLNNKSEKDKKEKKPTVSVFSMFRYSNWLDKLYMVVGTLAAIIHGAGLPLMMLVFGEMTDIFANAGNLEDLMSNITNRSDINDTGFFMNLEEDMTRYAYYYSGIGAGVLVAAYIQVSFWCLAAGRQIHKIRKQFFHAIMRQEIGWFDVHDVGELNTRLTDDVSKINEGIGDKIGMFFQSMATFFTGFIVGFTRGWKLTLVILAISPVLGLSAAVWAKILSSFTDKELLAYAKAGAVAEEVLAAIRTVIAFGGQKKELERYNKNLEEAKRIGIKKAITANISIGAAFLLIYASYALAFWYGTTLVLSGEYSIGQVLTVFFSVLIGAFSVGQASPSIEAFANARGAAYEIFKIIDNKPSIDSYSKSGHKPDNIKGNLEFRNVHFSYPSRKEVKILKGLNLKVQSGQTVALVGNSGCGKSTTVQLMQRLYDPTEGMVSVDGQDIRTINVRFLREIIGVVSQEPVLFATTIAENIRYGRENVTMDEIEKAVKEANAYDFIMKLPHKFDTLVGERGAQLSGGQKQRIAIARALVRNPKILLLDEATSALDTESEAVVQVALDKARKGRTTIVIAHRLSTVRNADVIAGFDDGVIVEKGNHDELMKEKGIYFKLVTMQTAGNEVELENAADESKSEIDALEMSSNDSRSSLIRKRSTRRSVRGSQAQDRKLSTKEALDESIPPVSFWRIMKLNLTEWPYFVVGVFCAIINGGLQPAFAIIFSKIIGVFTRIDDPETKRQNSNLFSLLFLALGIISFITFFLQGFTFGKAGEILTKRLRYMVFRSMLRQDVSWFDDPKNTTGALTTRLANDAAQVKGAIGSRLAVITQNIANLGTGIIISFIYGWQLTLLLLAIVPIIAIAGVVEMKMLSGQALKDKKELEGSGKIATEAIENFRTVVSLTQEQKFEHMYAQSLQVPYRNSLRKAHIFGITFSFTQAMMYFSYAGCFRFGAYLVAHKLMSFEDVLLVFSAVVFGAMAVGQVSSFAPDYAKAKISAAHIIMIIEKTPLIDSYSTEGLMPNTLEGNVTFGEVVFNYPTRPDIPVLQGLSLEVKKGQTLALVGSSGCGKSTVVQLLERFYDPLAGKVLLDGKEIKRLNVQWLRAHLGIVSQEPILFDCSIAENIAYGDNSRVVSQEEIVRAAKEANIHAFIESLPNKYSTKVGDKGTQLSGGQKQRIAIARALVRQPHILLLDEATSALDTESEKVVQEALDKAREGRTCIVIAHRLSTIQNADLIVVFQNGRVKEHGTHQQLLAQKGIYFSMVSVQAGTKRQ

Q: What does the source list for `Cn1c(COP(=O)(NCCBr)NCCBr)cnc1[N+](=O)[O-]` [TH-302, Evofosfamide]?
A: IC90 [1, 2]: 26.2 µM; IC90 [1, 3]: 0.21 µM; HCR ([1]; IC90 ratio normoxic/N2): 125

Q: What does the source list for `O=[N+]([O-])c1ccc([C@H](OP(=O)(N2CC2)N2CC2)C(F)(F)F)c2ccccc12` [Compound B]?
A: recovery at 2 h (P-gp; [4]): 59.3%; recovery at 2 h (P-gp; [5]): 65.2%; recovery at 2 h (P-gp; [6]): 68.3%; Pgp substrate status (P-gp): not substrates for Pgp

Q: For `CC(OP(=O)(N1CC1)N1CC1)c1ccc([N+](=O)[O-])c2ccccc12` (stereo not drawn) [Compound D], which Remaining percentage (Plasma stability, mouse; Mouse plasma) is on record?
A: 87.35%

Q: And the “plasma stability” value (Plasma stability, mouse)?
A: relatively unstable

Q: What about the Remaining percentage (Plasma stability, rat) of the same molecule?
A: 85.49%

Q: And the “plasma stability” value (Plasma stability, rat; rat plasma)?
A: relatively unstable

Q: What about the Remaining percentage (Plasma stability, monkey; Monkey plasma, after 30 minutes) of the same molecule?
A: 87.66%

Q: Which “Remaining percentage (%)” value (Plasma stability, mouse; Mouse plasma, 15 min) does the source give for `O=[N+]([O-])c1ccc(C(OP(=O)(N2CC2)N2CC2)C(F)(F)F)c2ccccc12` (racemic) [Compound A] here?
A: 104 ± 2.96%

Q: What about the “Remaining percentage (%)” value (Plasma stability, mouse; Mouse plasma, 60 min) of the same molecule?
A: 86.6 ± 3.16%

Q: What about the “Remaining percentage (%)” value (Plasma stability, mouse; Mouse plasma, 90 min) of the same molecule?
A: 76.9 ± 2.40%

Q: And the “Remaining percentage (%)” value (Plasma stability, mouse; Mouse plasma, 120 min)?
A: 66.4% and 66.4 ± 0.993%

Q: And the “Remaining percentage (%)” value (Plasma stability, mouse; Mouse plasma, 2 h time course, 0 min)?
A: 100%

Q: And the Remaining percentage (Plasma stability, mouse; Mouse plasma)?
A: 55.07%

Q: What about the half-life at 5 µM (Plasma stability, mouse; Mouse plasma, in vitro, read-out: t½) of the same molecule?
A: 3.15 h

Q: And the “Remaining percentage (%)” value (Plasma stability, mouse; Mouse plasma, time course, 30 min)?
A: 97.7 ± 4.71%

Q: What about the “plasma stability” value (Plasma stability, mouse) of the same molecule?
A: unstable

Q: What about the “Remaining percentage (%)” value (Plasma stability, rat; 15 min) of the same molecule?
A: 101 ± 1.33%

Q: What about the “Remaining percentage (%)” value (Plasma stability, rat; 60 min) of the same molecule?
A: 88.9 ± 0.537%

Q: What about the “Remaining percentage (%)” value (Plasma stability, rat; 90 min) of the same molecule?
A: 84.6 ± 1.20%

Q: What about the “Remaining percentage (%)” value (Plasma stability, rat; 120 min) of the same molecule?
A: 69.0% and 69.0 ± 1.10%

Q: And the “Remaining percentage (%)” value (Plasma stability, rat; 2 h time course, 0 min)?
A: 100%

Q: And the Remaining percentage (Plasma stability, rat)?
A: 52.11%

Q: And the “Remaining percentage (%)” value (Plasma stability, rat; time course, 30 min)?
A: 100 ± 2.23%

Q: What about the half-life at 5 µM (Plasma stability, rat; rat plasma) of the same molecule?
A: 3.77 h

Q: What about the “plasma stability” value (Plasma stability, rat; rat plasma) of the same molecule?
A: unstable

Q: What about the “Remaining percentage (%)” value (Plasma stability, monkey; Monkey plasma, 15 min) of the same molecule?
A: 97.9 ± 3.72%

Q: What about the “Remaining percentage (%)” value (Plasma stability, monkey; Monkey plasma, 60 min) of the same molecule?
A: 103 ± 4.19%

Q: What about the “Remaining percentage (%)” value (Plasma stability, monkey; Monkey plasma, 90 min) of the same molecule?
A: 92.3 ± 2.15%

Q: And the “Remaining percentage (%)” value (Plasma stability, monkey; Monkey plasma, 120 min)?
A: 87.4% and 87.4 ± 1.59%

Q: And the “Remaining percentage (%)” value (Plasma stability, monkey; Monkey plasma, 2 h time course, 0 min)?
A: 100%

Q: What about the t½ (Plasma stability, monkey; Monkey plasma, in vitro) of the same molecule?
A: >373* min

Q: And the half-life at 5 µM (Plasma stability, monkey; Monkey plasma, in vitro, read-out: t½)?
A: > 6.22 h

Q: And the “Remaining percentage (%)” value (Plasma stability, monkey; Monkey plasma, time course, 30 min)?
A: 107 ± 2.78%

Q: What about the “plasma stability” value (Plasma stability, monkey; monkey plasma) of the same molecule?
A: stable

Q: With `O=[N+]([O-])c1ccc([C@@H](OP(=O)(N2CC2)N2CC2)C(F)(F)F)c2ccccc12` (single isomer, unassigned) [Compound C] as the molecule, how does the IC90 [1, 2] read?
A: > 0.14 µM

Q: And the IC90 [1, 3]?
A: > 0.14 µM

Q: And the recovery at 2 h (P-gp; [4])?
A: 57.8%

Q: What about the recovery at 2 h (P-gp; [5]) of the same molecule?
A: 61.5%

Q: What about the recovery at 2 h (P-gp; [6]) of the same molecule?
A: 66.3%

Q: What about the Pgp substrate status (P-gp) of the same molecule?
A: not substrates for Pgp
